Experimental data: PubChem BioAssay (NCI)
Where “and” joins values, the source holds several entries; their conditions need not be identical. Identical values can stand only once.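 Values below derive from 48-hour exposures of cells grown in 96-well plates, with endpoints linearly interpolated between the two concentrations bracketing the appropriate inhibition level. GI50 is the concentration that inhibits growth by half. Definition used: TGI = concentration required for complete inhibition of growth.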

How the values were obtained:
Experiment in all cases: NCI-60 cell line screen, 48 h
CCRF-CEM leukemia = tested on: CCRF-CEM leukemia
HT29 colon = tested on: HT29 colon
IGROV1 ovarian = tested on: IGROV1 ovarian
K-562 leukemia = tested on: K-562 leukemia
KM12 colon = tested on: KM12 colon
LOX IMVI melanoma = tested on: LOX IMVI melanoma
NCI-H226 lung = tested on: NCI-H226 lung
NCI-H23 lung = tested on: NCI-H23 lung
SR leukemia = tested on: SR leukemia
HOP-62 NSCLC = tested on: HOP-62 NSCLC

Row | Compound | TGI (CCRF-CEM leukemia) [µM] | TGI (HT29 colon) [µM] | TGI (IGROV1 ovarian) [µM] | TGI (K-562 leukemia) [µM] | TGI (KM12 colon) [µM] | TGI (LOX IMVI melanoma) | TGI (NCI-H226 lung) [µM] | TGI (NCI-H23 lung) [µM] | TGI (SR leukemia) [µM] | TGI (HOP-62 NSCLC) [µM] | GI50 (CCRF-CEM leukemia) [µM] | GI50 (HOP-62 NSCLC) [µM] | GI50 (HT29 colon) [µM] | GI50 (IGROV1 ovarian) [µM] | GI50 (KM12 colon) [µM] | GI50 (LOX IMVI melanoma) [µM] | GI50 (NCI-H226 lung) [µM] | GI50 (NCI-H23 lung) [µM] | GI50 (K-562 leukemia) [µM] | GI50 (SR leukemia) [µM]
1 | CC(C)(C)N/N=C(/Cc1nc2c3c(ccc2[nH]c1=O)C(=O)c1ccccc1C3=O)C(=O)NC1=C(Cl)C(=O)c2ccccc2C1=O | > 100 | 30 | > 100 | > 100 | 8.83 | > 100 µM | 88.8 | > 100 | > 100 |  |  |  |  |  |  |  |  |  |  | 
2 | COC(=O)Cc1cc(=O)n2c3ccccc3n(C)c2c1C#N |  | > 100 | > 100 | > 100 | > 100 | > 100 µM | > 100 | > 100 | > 100 | > 100 |  |  |  |  |  |  |  |  |  | 
3 | O=c1ccc(N=Nc2ccccc2)ccc1O |  | 32.1 | 34.6 | > 100 | 24.9 | 17.4 µM | 24.3 | 31.5 | 22.2 | 24.4 |  |  |  |  |  |  |  |  |  | 
4 | Clc1ccc(C=Nc2ccc(-c3nc4ccccc4[nH]3)cc2)cc1 | > 100 | > 100 | > 100 |  | > 100 | > 100 µM | > 100 | > 100 |  | > 100 | > 100 | > 100 | > 100 | > 100 | > 100 | > 100 | > 100 | > 100 |  | 
5 | CCCCCCCCCCCC/C=C\CC[C@@H](O)[C@H](O)CC[C@H](O)[C@@H]1CC[C@@H](CCCCCCCC2=C[C@H](C)OC2=O)O1 | > 100 |  | 28.1 | 30 | 46 | 4.84 µM and 32.3 µM | 34.3 | 29.9 |  |  | 6.82 |  |  | 7.09 | 12.9 | 3.55 | 13.3 | 2.19 |  | 
6 | Cc1ccc(NCCNCC(C)(C)O)c2c(=O)c3ccc(Cl)cc3sc12 |  | 3.1 | 2.96 |  | 3.13 |  |  | 3.03 |  |  |  |  | 1.61 | 1.35 | 1.63 |  |  | 1.53 |  | 
7 | CCCN1C(=O)/C(=C/c2ccc(SC(F)(F)F)cc2)SC1=Nc1ccc(OC)cc1 |  | > 50 | > 50 | > 50 | > 50 | > 50 µM | > 50 | 30.2 | > 50 | > 50 |  | 16.5 | 17.6 | 29.6 | 19.7 | 4.36 | 14.8 | 12.6 | 23.1 | 37.7
8 | N#C/C(=C\c1ccc(O)cc1)C(N)=O | > 100 | > 100 | > 100 | > 100 | > 100 | > 100 µM | > 100 | > 100 |  | > 100 |  |  |  |  |  |  |  |  |  | 
9 | COc1cc2ncn(-c3cc(OCc4ccccc4C(F)(F)F)c(C(N)=O)s3)c2cc1OC | > 25 | > 25 | > 25 | > 25 | > 25 | > 25 µM | > 25 | > 22.2 |  | 5.88 | 0.0841 | 0.197 | 0.0889 | 0.933 | 0.0958 | 0.139 | 1.01 | 0.16 | 0.137 | 
10 | COc1cc2c(c(OC)c1OC)-c1cc(I)c(O)cc1[C@@H](NC(C)=O)CC2 | > 100 | 10.7 | > 31.6 | > 100 | 1.36 | > 100 µM | 99.2 | > 100 |  | > 100 | 0.0364 | 0.179 | 0.036 | 0.137 | 0.0432 | 0.075 | 0.299 | 0.046 | 0.0324 | 
11 | CN1C2C=CC(=O)C1C1C(=O)N(c3ccccc3)C(=O)C12 (stereo not drawn) | > 100 | 23.4 | 27.9 | > 100 | 18.4 | 13.3 µM | 57.3 | 37.1 |  | 28.6 | 7.51 | 12.4 | 3.92 | 12.1 | 5.17 | 3.74 | 17.6 | 13.2 | 10.2 | 
12 | FC(F)(F)c1ccccc1C1SCc2nc3ccccc3n21 (stereo not drawn) | > 100 | > 100 | > 100 | > 100 | > 100 |  | > 100 | > 100 | > 100 |  |  |  |  |  |  |  |  |  |  | 
13 | CCCCNc1ncnc2c1cnn2-c1ccccc1 | > 100 | 13.8 | > 100 |  | 27.2 | > 100 µM | 86.1 | > 100 | > 100 | > 100 | 5.24 | 3.42 | 0.565 | 2.22 | 0.474 | 3.7 | 13.7 | 3.34 |  | 0.444
14 | Fc1ccccc1CN1COc2c(cc(Cl)c3cccnc23)C1 |  | 20.4 | 18.6 | 8.41 | 12.1 |  | 2.97 | 9.31 | 3.85 | 16.6 |  |  |  |  |  |  |  |  |  | 
15 | Cc1cc(N(CCC#N)CCC#N)ccc1/C=C(\NC(=O)/C=C/c1ccccc1)C(=O)Nc1ccccc1Cl | > 100 | > 100 | > 100 | > 100 | > 100 | > 100 µM | > 100 | > 100 |  |  |  |  |  |  |  |  |  |  |  | 
16 | Nc1ncn([C@H]2CC(O)[C@@H](CO)S2)c(=O)n1 (stereo partly drawn) | > 100 | > 100 | > 100 | > 100 | > 100 | > 100 µM | > 100 | > 100 |  | > 100 | 2.45 | 4.63 | 1.25 | 10.2 | 3.27 | 4.48 | 20.3 | 5.34 | 2.2 | 
17 | O=C(/C=C/c1ccccc1)c1ccc(Cl)cc1Cl | 33.1 | 32.9 | 40.5 | 30.1 | 34.2 |  | 89.9 | 75.8 |  | > 100 |  |  |  |  |  |  |  |  |  | 
